Each structure is given as a SMILES string.

For one assay, the target named is T1, Or69aB (Drosophila melanogaster, UniProt P82985).
T1 construct: gene Or69a; full ORF cloned from antennal cDNA into pUAS.g-HA.attB; expressed in Dhalo ab3A empty neurons (Or22a-Gal4), endogenous Orco; with Odorant receptor coreceptor
T1 sequence (P82985 1-393): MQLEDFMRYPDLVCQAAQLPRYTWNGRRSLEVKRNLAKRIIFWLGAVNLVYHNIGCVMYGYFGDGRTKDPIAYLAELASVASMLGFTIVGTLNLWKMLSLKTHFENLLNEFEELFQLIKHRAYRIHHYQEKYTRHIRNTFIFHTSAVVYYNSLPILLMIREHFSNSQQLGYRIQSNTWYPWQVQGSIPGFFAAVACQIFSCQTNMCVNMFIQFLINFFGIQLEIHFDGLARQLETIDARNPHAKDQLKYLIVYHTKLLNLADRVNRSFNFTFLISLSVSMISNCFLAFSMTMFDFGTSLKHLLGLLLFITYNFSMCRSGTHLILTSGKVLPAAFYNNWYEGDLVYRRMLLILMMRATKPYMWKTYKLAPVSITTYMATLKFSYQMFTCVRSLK
T1 sequence (Q9VNB5 1-486 partner): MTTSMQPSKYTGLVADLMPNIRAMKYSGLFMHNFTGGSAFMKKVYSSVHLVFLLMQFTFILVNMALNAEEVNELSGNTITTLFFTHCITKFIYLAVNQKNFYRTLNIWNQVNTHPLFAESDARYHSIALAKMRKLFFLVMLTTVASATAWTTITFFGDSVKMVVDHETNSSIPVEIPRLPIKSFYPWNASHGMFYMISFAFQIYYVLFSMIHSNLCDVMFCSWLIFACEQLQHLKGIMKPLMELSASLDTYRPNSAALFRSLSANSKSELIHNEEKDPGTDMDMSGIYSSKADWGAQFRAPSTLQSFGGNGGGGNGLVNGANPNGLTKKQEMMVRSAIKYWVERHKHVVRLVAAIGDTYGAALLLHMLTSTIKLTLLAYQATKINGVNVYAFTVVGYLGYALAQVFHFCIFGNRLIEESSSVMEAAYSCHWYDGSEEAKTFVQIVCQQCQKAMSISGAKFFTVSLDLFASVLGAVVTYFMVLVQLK
Put plainly: single sensillum recording, empty ab3A neuron. Conditions: 10 ug on filter paper, 0.5 s puff; activation (agonist). The class given is cell-based.
Turning to `C=C(C)[C@@H]1CC=C(C)C(=O)C1` [compound 8, (R)-carvone], the “SSR response (spikes/s)” value is “(R)-carvone, which elicited the strongest Or69aB response”. On to `C=C(C)[C@H]1CC=C(C)C(=O)C1` [(S)-carvone], for which the “SSR response (spikes/s)” value is “Or69aB responds best to both isomers of carvone”.

As for `CCCCCC/C=C\CCC=O` [compound 10, (Z)-4-undecenal], the “SSR response (spikes/s)” value was “Or69aB responds best to both isomers of carvone, followed by Z4-11Al”.

For another assay, the target named is T2, Or69aA (Drosophila melanogaster, UniProt Q9VU27).
T2 construct: gene Or69a; full ORF cloned from antennal cDNA into pUAS.g-HA.attB; expressed in Dhalo ab3A empty neurons (Or22a-Gal4), endogenous Orco; with Odorant receptor coreceptor
T2 sequence (Q9VU27 1-393): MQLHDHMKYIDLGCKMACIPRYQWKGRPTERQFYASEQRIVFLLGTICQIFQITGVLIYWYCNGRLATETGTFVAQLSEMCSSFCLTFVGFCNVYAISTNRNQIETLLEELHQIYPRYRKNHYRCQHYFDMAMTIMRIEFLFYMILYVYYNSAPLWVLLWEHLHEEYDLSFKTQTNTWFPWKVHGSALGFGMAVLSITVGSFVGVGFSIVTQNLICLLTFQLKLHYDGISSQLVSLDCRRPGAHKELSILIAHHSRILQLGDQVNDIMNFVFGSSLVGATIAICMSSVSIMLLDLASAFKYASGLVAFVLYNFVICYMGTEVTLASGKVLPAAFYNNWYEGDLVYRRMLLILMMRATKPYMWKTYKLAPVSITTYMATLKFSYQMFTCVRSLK
T2 sequence (Q9VNB5 1-486 partner): T1 sequence (Q9VNB5 1-486 partner)
The assay can be described thus: single sensillum recording, empty ab3A neuron. Type of assay: cell-based. Conditions: 10 ug on filter paper, 0.5 s puff; activation (agonist).
Take `CC1=CC[C@@H](C(C)(C)O)CC1` [compound 1, (S)-α-terpineol]: the “SSR response (spikes/s)” value is “The most active ligands (S)-α-terpineol and (S)- and (R)-linalool”.

For `C=C[C@@](C)(O)CCC=C(C)C` [(S)-linalool], the “SSR response (spikes/s)” value is “The most active ligands (S)-α-terpineol and (S)- and (R)-linalool”. In the case of `C=C[C@](C)(O)CCC=C(C)C` [compound 4, (R)-linalool], the “SSR response (spikes/s)” value was “The most active ligands (S)-α-terpineol and (S)- and (R)-linalool”.

These data come from PMC5622430, “A Drosophila female pheromone elicits species-specific long-range attraction via an olfactory channel with dual specificity for sex and food” (BMC Biology, 2017).
